Values joined by “and” are separate entries in the source; they are usually repeats but may differ in a detail not shown here. Equal values may be shown once. Read-outs that look alike come from different tables or passages of the source.
What was measured:
KRAS G12D = KRAS G12D (Homo sapiens (Human), UniProt P01116+P62937, G12D); test: Ras-Raf (BRAF RBD) disruption / FRET / MOA assay, KRAS G12D; type: biochemical; details: class symbols
Method in brief: (§1)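 A 10-point, 3-fold dilution series topping at 30 μM final was incubated 3 h at 25° C with the Ras/cyclophilin A/BRAF RBD mixture.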

KRAS WT = KRAS WT (Homo sapiens (Human), UniProt P01116+P62937); test: Ras-Raf (BRAF RBD) disruption / FRET / MOA assay, KRAS WT; type: biochemical
Sequence of KRAS WT (P01116-2 other isoform, or with tags, fused parts or gaps): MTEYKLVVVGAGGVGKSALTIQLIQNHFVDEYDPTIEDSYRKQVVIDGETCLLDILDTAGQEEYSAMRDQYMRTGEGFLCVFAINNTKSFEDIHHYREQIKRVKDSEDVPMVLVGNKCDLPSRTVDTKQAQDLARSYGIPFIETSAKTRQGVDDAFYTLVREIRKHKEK
Sequence of KRAS WT (P62937 whole entry, canonical isoform): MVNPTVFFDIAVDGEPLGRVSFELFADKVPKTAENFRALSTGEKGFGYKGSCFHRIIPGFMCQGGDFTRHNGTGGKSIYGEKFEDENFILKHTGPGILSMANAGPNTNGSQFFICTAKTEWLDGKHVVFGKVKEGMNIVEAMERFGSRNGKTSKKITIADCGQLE
Procedure: (§2) The purpose of this biochemical assay is to measure the ability of test compounds to facilitate ternary complex formation between a nucleotide-loaded Ras isoform and cyclophilin A; the resulting ternary complex disrupts binding to a BRAF^RBD construct, inhibiting Ras signaling through a RAF effector.
(§3) Compound is present in plate wells as a 10-point 3-fold dilution series starting at a final concentration of 30 μM. After incubation at 25° C. for 3 hours, a mixture of Anti-His Eu-W1024 and anti-GST allophycocyanin is then added to assay sample wells at final concentrations of 10 nM and 50 nM, respectively, and the reaction incubated for an additional 1.5 hours. […] Compounds that facilitate disruption of a Ras:RAF complex are identified as those eliciting a decrease in the TR-FRET ratio relative to DMSO control wells.
(§4) This protocol may also be executed substituting other Ras proteins or nucleotides.
(§5) The purpose of this biochemical assay was to measure the ability of test compounds to facilitate ternary complex formation between a nucleotide-loaded K-Ras isoform and Cyclophilin A; the resulting ternary complex disrupts binding to a BRAF^RBD construct, inhibiting K-Ras signaling through a RAF effector. Data is reported as IC50 values.
as §3, with “Compound was” for “Compound is”, “allophycocyanin was” for “allophycocyanin is”, “a K-Ras:RAF” for “a Ras:RAF”, “complex were” for “complex are”

KRAS G12V = KRAS G12V (Homo sapiens (Human), UniProt P01116+P62937, G12V); test: Ras-Raf (BRAF RBD) disruption / FRET / MOA assay, KRAS G12V; type: biochemical
Sequence of KRAS G12V (P01116-2 other isoform, or with tags, fused parts or gaps G12V): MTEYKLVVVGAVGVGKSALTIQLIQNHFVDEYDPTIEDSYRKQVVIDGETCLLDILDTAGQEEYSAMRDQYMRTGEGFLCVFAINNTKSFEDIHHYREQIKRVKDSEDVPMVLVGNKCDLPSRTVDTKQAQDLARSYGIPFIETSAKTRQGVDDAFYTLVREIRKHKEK
Sequence of KRAS G12V (P62937 whole entry): as the sequence (P62937 whole entry, canonical isoform) above
Procedure: as §2, §3, §4, §5
as §3, with “Compound was” for “Compound is”, “allophycocyanin was” for “allophycocyanin is”, “a K-Ras:RAF” for “a Ras:RAF”, “complex were” for “complex are”

K-Ras G13C = K-Ras G13C (Homo sapiens (Human), UniProt P01116+P62937, G13C); test: Ras-Raf (BRAF RBD) disruption / FRET / MOA assay, KRAS G13C; type: biochemical; details: KRAS G13C, Ras-Raf disruption/FRET/MOA assay
Sequence of K-Ras G13C (P01116-2 other isoform, or with tags, fused parts or gaps G13C): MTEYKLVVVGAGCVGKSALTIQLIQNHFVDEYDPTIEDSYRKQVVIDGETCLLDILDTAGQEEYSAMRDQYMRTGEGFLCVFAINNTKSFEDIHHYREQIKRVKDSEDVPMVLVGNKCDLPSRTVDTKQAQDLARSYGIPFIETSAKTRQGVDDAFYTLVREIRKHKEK
Sequence of K-Ras G13C (P62937 whole entry): as the sequence (P62937 whole entry, canonical isoform) above
Procedure: as §2, §3, §4, §5
as §3, with “Compound was” for “Compound is”, “allophycocyanin was” for “allophycocyanin is”, “a K-Ras:RAF” for “a Ras:RAF”, “complex were” for “complex are”

KRAS G12S = KRAS G12S (Homo sapiens (Human), UniProt P01116+P62937, G12S); test: Ras-Raf (BRAF RBD) disruption / FRET / MOA assay, KRAS G12S; type: biochemical; details: class symbols
Sequence of KRAS G12S (P01116-2 other isoform, or with tags, fused parts or gaps G12S): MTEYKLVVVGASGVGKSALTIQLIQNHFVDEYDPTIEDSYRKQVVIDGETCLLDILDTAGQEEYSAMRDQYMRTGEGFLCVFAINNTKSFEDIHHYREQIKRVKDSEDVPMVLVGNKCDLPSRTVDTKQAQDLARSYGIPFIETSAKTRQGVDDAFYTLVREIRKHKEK
Sequence of KRAS G12S (P62937 whole entry): as the sequence (P62937 whole entry, canonical isoform) above
Method in brief: as §1

[1] = system: NCI-H358 cells (K-Ras G12C); test: Potency assay: pERK in NCI-H358 cells; type: cell-based, human; details: H358 KRAS G12C, read-out: pERK EC50
Method in brief: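 Inhibition of cellular pERK after a 4 h treatment, detected by AlphaLISA or In-Cell Western. IC50 from a four-parameter concentration-response fit.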

NRAS G12C = NRAS G12C (Homo sapiens (Human), UniProt P01111+P62937, G12C); test: Ras-Raf (BRAF RBD) disruption / FRET / MOA assay, NRAS G12C; type: biochemical
Sequence of NRAS G12C (P01111 whole entry G12C): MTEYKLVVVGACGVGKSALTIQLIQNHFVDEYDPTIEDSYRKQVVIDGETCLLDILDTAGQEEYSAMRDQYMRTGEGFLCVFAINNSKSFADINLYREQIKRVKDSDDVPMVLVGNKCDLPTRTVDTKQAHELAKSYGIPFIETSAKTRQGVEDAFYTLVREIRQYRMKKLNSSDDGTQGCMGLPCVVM
Sequence of NRAS G12C (P62937 whole entry): as the sequence (P62937 whole entry, canonical isoform) above
Procedure: as §2, §3
This protocol may also be executed substituting other Ras proteins or nucleotides. […]

K-Ras G12C = K-Ras G12C (Homo sapiens (Human), UniProt P01116+P62937, G12C); test: Ras-Raf (BRAF RBD) disruption / FRET / MOA assay, KRAS G12C; type: biochemical; details: KRAS G12C, Ras-Raf disruption/FRET/MOA assay
Sequence of K-Ras G12C (P01116-2 other isoform, or with tags, fused parts or gaps G12C): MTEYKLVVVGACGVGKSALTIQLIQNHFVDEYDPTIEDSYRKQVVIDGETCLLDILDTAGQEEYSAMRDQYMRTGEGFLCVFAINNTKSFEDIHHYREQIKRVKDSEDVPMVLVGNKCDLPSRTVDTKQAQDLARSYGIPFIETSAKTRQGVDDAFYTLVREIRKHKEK
Sequence of K-Ras G12C (P62937 whole entry): as the sequence (P62937 whole entry, canonical isoform) above
Procedure: as §2, §3, §4, §5
as §3, with “Compound was” for “Compound is”, “allophycocyanin was” for “allophycocyanin is”, “a K-Ras:RAF” for “a Ras:RAF”, “complex were” for “complex are”

KRAS G13D = KRAS G13D (Homo sapiens (Human), UniProt P01116+P62937, G13D); test: Ras-Raf (BRAF RBD) disruption / FRET / MOA assay, KRAS G13D; type: biochemical
Sequence of KRAS G13D (P01116-2 other isoform, or with tags, fused parts or gaps G13D): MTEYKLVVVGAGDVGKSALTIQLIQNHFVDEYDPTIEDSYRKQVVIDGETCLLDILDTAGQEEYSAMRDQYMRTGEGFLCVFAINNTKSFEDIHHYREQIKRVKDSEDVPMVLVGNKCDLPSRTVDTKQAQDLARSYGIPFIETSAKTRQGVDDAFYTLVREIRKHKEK
Sequence of KRAS G13D (P62937 whole entry): as the sequence (P62937 whole entry, canonical isoform) above
Procedure: as §2, §3, §4, §5
as §3, with “Compound was” for “Compound is”, “allophycocyanin was” for “allophycocyanin is”, “a K-Ras:RAF” for “a Ras:RAF”, “complex were” for “complex are”

NCI-H358 (K-Ras G12C) = test: CellTiter-Glo cell viability assay, NCI-H358; type: cell-based, human; details: Homo sapiens, NCI-H358, 120 h, NCI-H358, 5-day treatment; class symbols; read-out: Additional H358 Cell Viability assay data (K-Ras G12C, IC50)
Method in brief: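 Steps: compound dispensed into wells holding cells; incubation to day 5; ~30 min room-temperature equilibration; luminescence read; sample signal divided by mean DMSO signal, times 100; four-parameter logistic curve fit.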

[2] = Ras-Raf disruption/FRET/MOA assay, read-out: KRAS G12D FRET data IC50
[3] = read-out: IC50* KRAS WT FRET data
[4] = read-out: IC50* KRAS G12V FRET data
[5] = read-out: IC50* KRAS G13C FRET data
[6] = Ras-Raf disruption/FRET/MOA assay, read-out: KRAS G12S FRET data IC50
[7] = read-out: IC50* NRAS G12C FRET data
[8] = read-out: IC50* KRAS G12C FRET data
[9] = read-out: IC50* KRAS G13D FRET data

Sequence of KRAS G12D (P01116-2 other isoform, or with tags, fused parts or gaps G12D): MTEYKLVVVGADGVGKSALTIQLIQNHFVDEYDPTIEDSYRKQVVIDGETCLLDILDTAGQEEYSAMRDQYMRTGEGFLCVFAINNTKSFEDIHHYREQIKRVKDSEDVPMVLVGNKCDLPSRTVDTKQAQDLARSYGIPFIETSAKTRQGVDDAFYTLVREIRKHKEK
Sequence of KRAS G12D (P62937 whole entry): as the sequence (P62937 whole entry, canonical isoform) above

SMILES	IC50 (KRAS G12D; [2])	IC50 (KRAS WT; [3])	IC50 (KRAS G12V; [4])	IC50 (K-Ras G13C; [5])	IC50 (KRAS G12S; [6])	EC50 ([1]; Homo sapiens, NCI-H358)	IC50 (NRAS G12C; [7])	IC50 (K-Ras G12C; [8])	IC50 (KRAS G13D; [9])	EC50 [1]	IC50 (KRAS G12D; KRAS G12D FRET data IC50, Ras-Raf disruption/FRET/MOA assay)	IC50 (KRAS WT; IC50* KRAS WT FRET data)	IC50 (KRAS G12V; IC50* KRAS G12V FRET data)	IC50 (K-Ras G13C; IC50* KRAS G13C FRET data)	IC50 (KRAS G12S; KRAS G12S FRET data IC50, Ras-Raf disruption/FRET/MOA assay)	IC50 (NRAS G12C; IC50* NRAS G12C FRET data)	IC50 (K-Ras G12C; IC50* KRAS G12C FRET data)	IC50 (KRAS G13D; IC50* KRAS G13D FRET data)	IC50 (NCI-H358 (K-Ras G12C))
CCn1c(-c2cccnc2[C@H](C)OC)c2c3cc(ccc31)-c1cc(O)cc(c1)C[C@H](NC(=O)[C@H](C(C)C)N(C)C(=O)c1ccc(NC(=O)/C=C/CN(C)C)cn1)C(=O)N1CCC[C@H](N1)C(=O)OCC(C)(C)C2 (atropisomer, axis not shown) [Example A251]	1 to 10 µM and > 10 µM	100 to 1000 nM and 1000 to 10000 nM	100 to 1000 nM and 1000 to 10000 nM	10 to 100 nM and < 10 nM	100 to 1000 nM and 1000 to 10000 nM	< 5 µM	10 to 100 nM	10 to 100 nM	100 to 1000 nM and 1000 to 10000 nM	–	–	–	–	–	–	–	–	–	–
C=CC(=O)Nc1ccc(C(=O)N(C)[C@H](C(=O)N[C@H]2Cc3cc(O)cc(c3)-c3ccc4c(c3)c(c(-c3cccnc3[C@H](C)OC)n4CC)CC(C)(C)COC(=O)[C@@H]3CCCN(N3)C2=O)C(C)C)cn1 (atropisomer, axis not shown) [Example A336]	1 to 10 µM	100 to 1000 nM	100 to 1000 nM	< 10 nM	100 to 1000 nM	–	< 10 nM	–	100 to 1000 nM	< 5 µM	–	–	–	–	–	–	–	–	–
C=CC(=O)N1CC(CN2C(=O)O[C@H](C)[C@H]2C(=O)N[C@H]2Cc3cccc(c3)-c3ccc4c(c3)c(c(-c3cccnc3[C@H](C)OC)n4CC)CC(C)(C)COC(=O)[C@@H]3CCCN(N3)C2=O)C1 (atropisomer, axis not shown) [Example A460]	–	–	–	–	–	–	–	–	–	–	> 10 µM	> 10000 nM	> 10000 nM	1000 to 10000 nM	> 10000 nM	1000 to 10000 nM	1000 to 10000 nM	> 10000 nM	–
C=CC(=O)N1CCN(C(=O)N(C)[C@H](C(=O)N[C@H]2Cc3nc(cs3)-c3ccc4c(c3)c(c(-c3cccnc3[C@H](C)OC)n4CC(F)(F)F)CC(C)(C)COC(=O)[C@@H]3CCCN(N3)C2=O)C(C)C)CC1 (atropisomer, axis not shown) [Example A465]	0.01 to 0.1 µM	10 to 100 nM	–	10 to 100 nM	10 to 100 nM	–	10 to 100 nM	10 to 100 nM	10 to 100 nM	< 5 µM	–	–	–	–	–	–	–	–	–
C=CC(=O)N1CC[C@H](C(=O)N(C)[C@H](C(=O)N[C@H]2Cc3cccc(c3)-c3ccc4c(c3)c(c(-c3cc(C5=CCN(C)CC5)cnc3[C@H](C)OC)n4CC)CC(C)(C)COC(=O)[C@@H]3CCCN(N3)C2=O)C(C)C)C1 (atropisomer, axis not shown) [Example A514]	> 10 µM	> 10000 nM	> 10000 nM	1000 to 10000 nM	> 10000 nM	–	1000 to 10000 nM	1000 to 10000 nM	> 10000 nM	–	–	–	–	–	–	–	–	–	–
C=CC(=O)N1CC[C@H](C(=O)N(C)[C@H](C(=O)NC2C[C@H]3CN(CCCO3)c3ccc4c(c3)c(c(-c3cccnc3[C@H](C)OC)n4CC)CC(C)(C)COC(=O)[C@@H]3CCCN(N3)C2=O)C(C)C)C1 (single isomer, unassigned) [Example A405]	> 10 µM	> 10000 nM	> 10000 nM	> 10000 nM	> 10000 nM	–	> 10000 nM	–	> 10000 nM	–	–	–	–	–	–	–	–	–	> 1000 nM
CCn1c(-c2cccnc2COC)c2c3cc(ccc31)-c1cc(O)cc(c1)C[C@H](NC(=O)[C@H](C(C)C)N(C)C(=O)[C@H]1CCN(C(=O)/C=C/CN(C)C)C1)C(=O)N1CCC[C@H](N1)C(=O)OCC(C)(C)C2 [Example A054]	0.1 to 1 µM	100 to 1000 nM	100 to 1000 nM	100 to 1000 nM	100 to 1000 nM	–	10 to 100 nM	10 to 100 nM	100 to 1000 nM	–	–	–	–	–	–	–	–	–	–
